Consider twelve compounds from patent US10251889B2, “Substituted pyrazolo[1,5-a]pyrimidine compounds as Trk kinase inhibitors” (Array BioPharma, Inc., priority 2009, dated 2019).

This experiment deals with Jak2 (human Jak2 kinase domain, amino acids 808-1132) (Homo sapiens (Human), UniProt O60674). Nature of the experiment: Jak2 inhibition assay (Omnia kinase assay). Format: biochemical. Conditions: read-out: Jak2 Enzyme (% inhibition at 1000 nM), Table 1; 1000 nM test compound.
Sequence of Jak2 (human Jak2 kinase domain, amino acids 808-1132) (O60674 808-1132): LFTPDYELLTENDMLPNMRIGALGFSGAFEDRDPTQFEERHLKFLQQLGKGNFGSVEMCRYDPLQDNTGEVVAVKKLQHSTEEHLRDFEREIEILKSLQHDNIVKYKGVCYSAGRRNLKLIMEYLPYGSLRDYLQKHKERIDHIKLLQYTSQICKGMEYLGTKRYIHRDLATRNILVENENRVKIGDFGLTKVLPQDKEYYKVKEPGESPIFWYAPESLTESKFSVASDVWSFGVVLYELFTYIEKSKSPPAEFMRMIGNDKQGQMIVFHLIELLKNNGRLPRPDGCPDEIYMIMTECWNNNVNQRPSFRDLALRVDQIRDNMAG
The term inhibition denotes the relative decrease from the control value, in per cent. Consider `O=C(c1cnn2ccc(N3CCC[C@@H]3c3cncc(F)c3)nc12)N1CC(CO)C1` [Example 127, (R)-(5-(2-(5-fluoropyridin-3-yl)pyrrolidin-1-yl)pyrazolo[1,5-a]pyrimidin-3-yl)(3-(hydroxymethyl)azetidin-1-yl)methanone], for which the inhibition at 1 µM is 0.2%.
As for `Cc1ncc(F)cc1[C@H]1CCCN1c1ccn2ncc(C(=O)NCCO)c2n1` [Example 188, (R)-5-(2-(5-fluoro-2-methylpyridin-3-yl)pyrrolidin-1-yl)-N-(2-hydroxyethyl)pyrazolo[1,5-a]pyrimidine-3-carboxamide], the figure is 9.3%.
The same measure for `C[C@H](NC(=O)c1cnn2ccc(N3[C@H](CO)CC[C@@H]3c3cncc(F)c3)nc12)C(F)(F)F` [Example 213, 5-((2R,5S)-2-(5-fluoropyridin-3-yl)-5-(hydroxymethyl)pyrrolidin-1-yl)-N—((S)-1,1,1-trifluoropropan-2-yl)pyrazolo[1,5-a]pyrimidine-3-carboxamide]: 21.9%; for `CC(C)[C@@H](CO)NC(=O)c1cnn2ccc(N3CCC[C@@H]3c3cncc(F)c3)nc12` [Example 121, 5-((R)-2-(5-fluoropyridin-3-yl)pyrrolidin-1-yl)-N-((S)-1-hydroxy-3-methylbutan-2-yl)pyrazolo[1,5-a]pyrimidine-3-carboxamide]: 3.7%; for `O=C(NCCN1CCC(O)CC1)c1cnn2ccc(N3CCC[C@@H]3c3cc(F)ccc3F)nc12` [Example 170, 5-((R)-2-(2,5-difluorophenyl)pyrrolidin-1-yl)-N-(2-(4-hydroxypiperidin-1-yl)ethyl)pyrazolo[1,5-a]pyrimidine-3-carboxamide]: 0.7%.
As for `O=C(N[C@H]1CCC[C@H]1O)c1cnn2ccc(N3CCC[C@@H]3c3cncc(F)c3)nc12` [Example 104, 5-((R)-2-(5-fluoropyridin-3-yl)pyrrolidin-1-yl)-N-((1S,2R)-2-hydroxycyclopentyl)pyrazolo[1,5-a]pyrimidine-3-carboxamide], the figure is 6.1%.
As to `COc1ncc(F)cc1[C@H]1CCCN1c1ccn2ncc(C(=O)NCCO)c2n1` [Example 155, (R)-5-(2-(5-fluoro-2-methoxypyridin-3-yl)pyrrolidin-1-yl)-N-(2-hydroxyethyl)pyrazolo[1,5-a]pyrimidine-3-carboxamide], the inhibition at 1 µM is 33.3%.
With `O=C(NCC(F)F)c1cnn2ccc(N3CCC[C@@H]3c3cncc(F)c3)nc12` [Example 134, (R)-N-(2,2-difluoroethyl)-5-(2-(5-fluoropyridin-3-yl)pyrrolidin-1-yl)pyrazolo[1,5-a]pyrimidine-3-carboxamide], the inhibition at 1 µM was 3.3%.
As for `O=C(NC1CCC1)c1cnn2ccc(N3CCC[C@@H]3c3cncc(F)c3)nc12` [Example 101, (R)-N-cyclobutyl-5-(2-(5-fluoropyridin-3-yl)pyrrolidin-1-yl)pyrazolo[1,5-a]pyrimidine-3-carboxamide], the inhibition at 1 µM was 26.2%.
As for `CS(=O)(=O)N1CCC(NC(=O)c2cnn3ccc(N4CCC[C@@H]4c4cc(F)ccc4F)nc23)CC1` [Example 44, (R)-5-(2-(2,5-difluorophenyl)pyrrolidin-1-yl)-N-(1-(methylsulfonyl)piperidin-4-yl)pyrazolo[1,5-a]pyrimidine-3-carboxamide], the figure is 71.5%; as for `C[C@H](O)CNC(=O)c1cnn2ccc(N3CCC[C@@H]3c3cncc(F)c3)nc12` [Example 109, 5-((R)-2-(5-fluoropyridin-3-yl)pyrrolidin-1-yl)-N-((S)-2-hydroxypropyl)pyrazolo[1,5-a]pyrimidine-3-carboxamide], -0.3%; as for `COc1ncc(F)cc1[C@H]1CCCN1c1ccn2ncc(C(=O)N[C@H]3CC[C@H](O)C3)c2n1` [Example 154, 5-((R)-2-(5-fluoro-2-methoxypyridin-3-yl)pyrrolidin-1-yl)-N-((1S,3S)-3-hydroxycyclopentyl)pyrazolo[1,5-a]pyrimidine-3-carboxamide], 64.4%.
